{
  "source": "paper PMC9862409",
  "about": "(Pharmaceutics, 2023)",
  "key": {"human leukocyte elastase": {"target": "T1, human leukocyte elastase (Homo sapiens, UniProt P08246)", "T1 construct": "purchased Nawah Scientific Inc., Cairo, Egypt", "T1 sequence (P08246 30-267)": "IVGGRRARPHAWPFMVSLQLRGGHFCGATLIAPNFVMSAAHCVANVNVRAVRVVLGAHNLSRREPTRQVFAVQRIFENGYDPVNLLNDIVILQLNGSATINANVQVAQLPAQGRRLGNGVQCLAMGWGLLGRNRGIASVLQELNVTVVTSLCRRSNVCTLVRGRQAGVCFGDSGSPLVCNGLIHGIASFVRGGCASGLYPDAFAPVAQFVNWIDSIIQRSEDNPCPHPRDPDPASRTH", "test": "Anti-elastase assay", "format": "biochemical", "experimental": "The anti-elastase, anti-collagenase, and anti-tyrosinase activities were assessed following the method reported by Mostafa et al. [32]. […] For the anti-elastase assay, human leukocyte elastase (1 µg/mL) was incubated with N-2-hydroxyethylpiperazine-N-2-ethane sulfonic acid (HEPES) buffer (pH 7.5). Each of the tested samples or the standard inhibitor N-Methoxysuccinyl-Ala-Ala-Pro-chloromethyl ketone (1.4 mg/mL) was added into the 96-well plate for 20 min at 25 °C before the addition of 100 µL substrate of 1 mM N-Methoxysuccinyl-Ala-Ala-Pro-Val-p-nitroanilide. Afterward, the optical density was measured after 40 min of incubation at 405 nm against a blank well lacking the test sample/inhibitor. Various concentrations of the tested samples (25–300 µg/mL) were used.\nMoreover, in vitro skin-related enzyme inhibitory assays were carried out in triplicates, and results were expressed as mean ± standard deviation. A non-linear regression curve was used to calculate IC50. An unpaired t-test was used for statistical comparison between the two groups. p < 0.05 is considered statistically significant. […]"}, "mushroom tyrosinase": {"target": "mushroom tyrosinase", "test": "Anti-tyrosinase assay", "format": "biochemical", "description": "For the anti-tyrosinase assay, mushroom tyrosinase (5600 units/mL) was incubated at 37 °C for 15 min along with tested samples or standard inhibitor kojic acid (1.4 mg/mL) before the addition of the substrate 1 mM L-DOPA. Afterward, the optical density of the formed dopachrome was analyzed at 475 nm. Various concentrations of the tested samples (75–500 µg/mL) were used. All tests were conducted in triplicate. The enzyme inhibition activity was expressed in percentage using the following equation: (5) Enzyme inhibition activity %=Optical density of control – Optical density of sample/Optical density of control×100\nStatistical analysis of in vitro drug release kinetic models was carried out using one-way analysis of variance (ANOVA) followed by Tukey’s Multiple Comparison post hoc test; p ≤ 0.05. Moreover, in vitro skin-related enzyme inhibitory assays were carried out in triplicates, and results were expressed as mean ± standard deviation. A non-linear regression curve was used to calculate IC50. An unpaired t-test was used for statistical comparison between the two groups. p < 0.05 is considered statistically significant. Analyses were done using GraphPad Prism 6.01 (San Diego, CA, USA)."}, "[1]": {"test": "In vitro drug release, dialysis bag diffusion method", "format": "physicochemical", "settings": "after 6 h; PBS pH 7.4, 37 °C", "experimental": "The dissolution medium was phosphate buffer saline (PBS) (pH 7.4), which mimics physiological pH. […] Aliquots of 3 mL were taken from the dissolution medium at predefined time points at 0.5, 1, 2, 3, 4, 5, 6, 7, 8, 10, 12, 24, 36, and finally at 48 h. The sink conditions were maintained by immediately replenishing the equivalent volume of fresh PBS (pH 7.4) after each aliquot withdrawal. […] The study was performed in triplicate and was graphically presented as the cumulative percentage of drug release versus time. Data from the in vitro drug release study was further analyzed using different kinetic models to determine the drug release pattern.\nStatistical analysis of in vitro drug release kinetic models was carried out using one-way analysis of variance (ANOVA) followed by Tukey’s Multiple Comparison post hoc test; p ≤ 0.05. […] Analyses were done using GraphPad Prism 6.01 (San Diego, CA, USA)."}, "Staphylococcus aureus": {"system": "Staphylococcus aureus", "test": "MIC by broth microdilution method", "format": "cell-based", "settings": "Staphylococcus aureus (ATCC® 25922)", "description": "(§1) The MIC was determined by the broth microdilution method. […] Stock solutions were serially diluted (2-fold) in sterile Müeller Hinton broth (MHB) with a dilution range of 0.125 to 150 µg/mL. Overnight culture turbidity was adjusted equivalent to the 0.5 McFarland standard and then diluted to give a final concentration equivalent to 10^6 CFU/mL [30]. One hundred microliters of the adjusted bacterial culture were added to an equal volume of the tested dilutions in a 96-well microtiter plate. The plates were then incubated at 37 °C for 24 h.\n(§2) The MIC was recorded as the lowest concentration of an antimicrobial agent, which gave no visible growth. […] The experiment was conducted in triplicate. The mean as well as standard deviation were recorded."}, "[2]": {"system": "methicillin-resistant Staphylococcus aureus (MRSA)", "test": "MIC by broth microdilution method", "format": "cell-based", "description": "as §1, §2"}, "RBCs": {"system": "RBCs", "settings": "cited from earlier work"}, "[3]": {"target": "collagenase type 1 from Clostridium histolyticum", "test": "Anti-collagenase assay", "format": "biochemical", "settings": "+ve control = EDTA", "experimental": "For the anti-collagenase, collagenase type 1 from Clostridium histolyticum (1 mg/mL) buffer (pH 7.4) along with tested samples or standard inhibitor ethylenediamine tetraacetic acid (EDTA) (1.4 mg/mL) were incubated at 37 °C for 20 min prior to the addition of 100 µL of the substrate 2-furanacryloyl-l-leucylglycyl-l-prolyl-l-alanine (FALGPA). The mixture was then incubated at 37 °C for an additional 1 h before the addition of 200 µL of 2% ninhydrin in 200 mM citrate buffer (pH 5) and placed in a water bath for 5 min. Afterward, the solution was left to cool down completely. Afterwards 200 µL of 50% isopropanol was added, and the optical densities were analyzed at 540 nm. Various concentrations of the tested samples (25–300 µg/mL) were used."}, "[4]": {"settings": "susceptible ≤4 µg/mL, resistant ≥8 µg/mL"}},
  "data": [
    {"smiles": "CC(=O)NC[C@H]1CN(c2ccc(N3CCOCC3)c(F)c2)C(=O)O1", "note": "[LNZ, Linezolid]", "values": [
      {"measurement": "IC50", "setting": "human leukocyte elastase; +ve control = N-Methoxysuccinyl-Ala-Ala-Pro-chloromethyl ketone, read-out: Anti-Elastase IC50 (µg/mL) (converted)", "value": 170, "unit": "µM"},
      {"measurement": "Anti-Elastase % Inhibition", "setting": "human leukocyte elastase; samples tested 25–300 µg/mL, concentration of this value not stated, +ve control = N-Methoxysuccinyl-Ala-Ala-Pro-chloromethyl ketone (1.4 mg/mL)", "value": "88.00 ± 1.35", "unit": "%"},
      {"measurement": "Anti-Tyrosinase IC50", "setting": "mushroom tyrosinase; +ve control = kojic acid", "value": "363.50 ± 2.08", "unit": "µg/mL"},
      {"measurement": "Anti-Tyrosinase % Inhibition", "setting": "mushroom tyrosinase; samples tested 75–500 µg/mL, concentration of this value not stated, +ve control = kojic acid (1.4 mg/mL)", "value": "65.00 ± 1.63", "unit": "%"},
      {"measurement": "percentage LNZ released", "setting": "[1]", "value": "~98 ± 0.5", "unit": "%"},
      {"measurement": "MIC", "setting": "Staphylococcus aureus; ATCC25922, 37 °C, 24 h, read-out: Minimum Inhibitory Concentration (MIC)", "value": 4, "unit": "µg/mL"},
      {"measurement": "Minimum Inhibitory Concentration (MIC)", "setting": "Staphylococcus aureus; 37 °C, 24 h", "value": "4 ± 0.00", "unit": "µg/mL"},
      {"measurement": "susceptibility class (CLSI breakpoints)", "setting": "Staphylococcus aureus; [4]", "value": "S (S: sensitive)"},
      {"measurement": "Minimum Inhibitory Concentration (MIC)", "setting": "[2]; 37 °C, 24 h", "value": "4 ± 0.00", "unit": "µg/mL"},
      {"measurement": "MIC", "setting": "[2]; Staphylococcus aureus, 37 °C, 24 h, read-out: Minimum Inhibitory Concentration (MIC)", "value": 4, "unit": "µg/mL"},
      {"measurement": "susceptibility class (CLSI breakpoints)", "setting": "[2]; [4]", "value": "S (S: sensitive)"},
      {"measurement": "hemolysis percentage", "setting": "RBCs", "value": 14, "unit": "%"},
      {"measurement": "Anti-Collagenase IC50", "setting": "[3]", "value": "335.34 ± 2.09", "unit": "µg/mL"}
    ]}
  ]
}
